Experimental data: US5110976A, “Insecticidal composition comprising more than one active ingredient” (priority 1985, dated 1992)
“Also recorded” adds a separate entry of the source.

How the values were obtained:
T. confusum [1] = assay: Filter paper contact test with piperonyl butoxide (Table 7); assay type: in vivo, confused flour-beetle (T. confusum), imagos; details: for mortality at 25 µg/disc / mortality at 50 µg/disc / mortality at 100 µg/disc / mortality at 200 µg/disc / mortality at 400 µg/disc: Tribolium confusum, 24 h, PBO, where added, 0.5 mg/disc; for mortality at 25 µg/disc: 0.025 mg/disc; for mortality at 50 µg/disc: 0.05 mg/disc; for mortality at 100 µg/disc: 0.1 mg/disc; for mortality at 200 µg/disc: 0.2 mg/disc; for mortality at 400 µg/disc: 0.4 mg/disc
Description: The stereoisomers are dissolved in a 1:2 mixture of mineral oil and acetone and filter paper discs (Whatman No. 1., diameter 9 cm) are impregnated with the corresponding dosage of the solution of the active ingredient. The acetone is allowed to evaporate and the insects are examined on filter paper discs placed into Petri-dishes. Three parallels are used for each dose and 15 animals are placed in each Petri-dish. Mortality rate is determined after 24 hours. The corrected mortality % data are calculated by means of the Abbot formula.
T. confusum (confused flour-beetle) imagos are treated according to Example 20 and percental mortality is determined after 24 hours. The dose of piperonyl butoxide (referred to furtheron as "[…]") amounts to 0.5 mg/disc The results are disclosed in Table 7.

A. matricariae [2] = assay: Residual contact test on adults (Table 4); assay type: in vivo, Aphidinus matricariae, adult females
Description: Adults of A. matricariae are exposed to residues of the active ingredients freshly applied on glass plates forming cages then the survivors are counted.
Treatments: test products(s) and control treated with water.
Replicates: at least 3. Plot size (net) 1 cage.
Parasites of known age 24 hours are used.
The products are applied at 5-1 ppm concentration, to each of the glass plates.
10 females of A. matricariae are introduced into each cage and supplied with honey as food. The number of females surviving exposure is determined after 1.5 and 24 hours, in independent runs. Total number of survivors is calculated for each cage.

Aphidinus matricariae = assay: Residual contact test on adults (Table 25); assay type: in vivo, adult females
Description: Residual contact test on adults of Aphidinus matricariae. Adults of A. matricariae are exposed to residues of the active ingredients freshly applied on glass plates forming cages, then the survivors are counted.
Treatment: test product and control treated with water.
Replicates: at least 3. Plot size (net): 1 cage.
Parasites of known age (24 hours) are used. […]
10 females of A. matricariae are introduced into each cage and supplied with honey as food. The number of females surviving exposure is determined after 1, 5 and 24 hours, in independent runs. Total number of survivors is calculate for each cage.

Acanthoscelides obtectus = assay: 5 EC formulation, insecticidal effect on bean weevil (Table 10); assay type: in vivo, bean weevil (Acanthoscelides obtectus), imagos; details: 24 hours
Description: (§1) From a 5 EC formulation according to Example 17 50-, 100-, 200-, 400-, 800- and 1600-fold diluted emulsions are prepared by diluting with water. 0.5 ml of the emulsions are sprayed onto glass plates whereupon after drying 10 Colorado beetles (L. decemlineata) imagos are placed on each glass plate and the insects are covered. The tests are carried out with 6 doses by carrying out 3 parallels for each dose. The killed insects are counted after 48 hours and the percental mortality rate is calculated.
The insecticidal effect is tested on been weevil (Acanthoscelides obtectus) imagos. The killed insects are counted after 24 hours and the percental mortality rate is calculated.

[3] = Allergy and skin diseases; details: in vivo
L. decemlineata = assay: 5 EC formulation sprayed on glass plates (Table 9); assay type: in vivo, Colorado beetle (L. decemlineata), imagos; details: 48 hours
Description: as §1

T. confusum [4] = assay: Topical LD50 (Table 3); assay type: in vivo, 1-2 weeks' old imagos
Description: (§2) In Table 3 the LD50 values of the Ig and Ii isomers and those of the Ib isomer-pair are disclosed. The data are topically measured.
(§3) The active ingredients are dissolved in 2-ethoxyethanol (cellosolve) and 0.3 μl droplets of the solutions are applied onto the dorsal cuticulum of 3-5 days' old female house flies. 10 animals are used and 2 parallels are carried out for each dose. The tests are carried out for 5 dose levels between activity limits of 0% and 100%. After treatment the flies are placed into glass vials. Mortality is determined after 24 hours. Data are transformed to log10 dosage and probit mortality. LD50 and confidence interval values are calculated by linear regression analysis of the log-probit data. The expected values required for the calculation of synergism are obtained by means of harmonic average. The synergistic factor is the quotient of the expected and measured values.
The active ingredients are dissolved in 2-ethoxyethanol and 0.3 μl droplets of the solutions are applied onto the abdominal side of 1-2 weeks' old imagos. Treatment is carried out with 2 parallels and 20 animals for each dose by using 5 dose levels in the range between activity limits of 0% and 100%. Evaluation and determination of LD50 values and synergistic factors are carried out as described in Example 21.

Musca domestica = assay: Topical LD50 (Table 3); assay type: in vivo, house fly (Musca domestica), 3-5 days' old females
Description: as §2, §3

bees = assay: Toxicity on bees; details: in vivo
Repellant effect = details: in vivo
[5] = system: Leptinotarsa decemlineata; assay: Topical test on potato beetle (Table 6); assay type: in vivo, imagos; details: 24 h
Description: The active ingredients are dissolved in 2-ethoxyethanol and […] of the solutions are applied onto the abdominal sterna of potato beetle (Leptinotarsa decemlineata) imagos. The treatments are carried out by using two parallels and 10 insects for each dose. […]

A. matricariae [6] = assay: Direct contact test of pupae (Table 5); assay type: in vivo
Description: Mature pupae of A. matricariae on paprika leaves in Petri dishes are exposed to a direct spray of the active ingredients.
Two or three days before emergence paprika leaves with parasitized pupae are used. The leaves are laid on filter paper in a plastic Petri dish The filter paper is moistened.
Application of treatment: See Example 23.
The pieces of leaf are transferred after treatment to clean Petri dish bottoms The trays are stored in a clinic chamber at 20° C. temperature, 70% relative humidity and a light-dark cycle of […]. Surviving pupae hatch after 2-3 days. The numbers of hatched and dead pupae are counted.

[7] = system: useful entomophages and parasites; assay: Damage to useful entomophages and parasites; details: in vivo
[8] = harmonic average of the single isomers
[9] = quotient of expected and measured LD50

For `CC1(C)[C@H](C(=O)O[C@H](C#N)c2cccc(Oc3ccccc3)c2)[C@@H]1C=C(Cl)Cl` (relative stereo) [Ia], the mortality at 25 µg/disc (T. confusum [1]) was 0%, the mortality at 50 µg/disc (T. confusum [1]) was 0% and the mortality at 100 µg/disc (T. confusum [1]) was 12%. It also gave a mortality at 200 µg/disc (T. confusum [1]) of 53%, a mortality at 400 µg/disc (T. confusum [1]) of 96% and a Mortality % (A. matricariae [2]; 1 ppm, 1h) of 100%. The Mortality % (A. matricariae [2]; 1 ppm, 5h) was 100%, the Mortality % (A. matricariae [2]; 1 ppm, 24h) was 96% and the Mortality % (A. matricariae [2]; 5 ppm, 1h) was 100%. It also gave a Mortality % (Aphidinus matricariae; 1 ppm, 1h) of 100%, a Mortality % (Aphidinus matricariae; 1 ppm, 5h) of 100% and a Mortality % (Aphidinus matricariae; 1 ppm, 24h) of 96%. It also gave a Mortality % (Aphidinus matricariae; 5 ppm, 1h) of 100%.

Work on `CC1(C)[C@H](C=C(Cl)Cl)[C@H]1C(=O)O[C@H](C#N)c1cccc(Oc2ccccc2)c1` (relative stereo) [Ib] yielded a Mortality % (Acanthoscelides obtectus; dilution 50x) of 67%, a Mortality % (Acanthoscelides obtectus; dilution 100x) of 53% and a Mortality % (Acanthoscelides obtectus; dilution 200x) of 37%. It also gave a Mortality % (Acanthoscelides obtectus; dilution 400x) of 20%, a Mortality % (Acanthoscelides obtectus; dilution 800x) of 10% and a Mortality % (Acanthoscelides obtectus; dilution 1600x) of 3%. For the same compound, the “allergy and skin diseases” value [3] was “causes no allergy and skin diseases”, the Mortality % (L. decemlineata; dilution 50x) was 100% and the Mortality % (L. decemlineata; dilution 100x) was 87%. For the same compound, the Mortality % (L. decemlineata; dilution 200x) was 57%, the Mortality % (L. decemlineata; dilution 400x) was 37% and the Mortality % (L. decemlineata; dilution 800x) was 13%. For the same compound, the Mortality % (L. decemlineata; dilution 1600x) was 0%, the “synergizability with piperonyl butoxide” value (T. confusum [1]; Ib versus Ia) was “can be synergized at a higher level than isomer pair Ia” and the mortality at 25 µg/disc (T. confusum [1]) was 0%. The mortality at 50 µg/disc (T. confusum [1]) was 10%, the mortality at 100 µg/disc (T. confusum [1]) was 51% and the mortality at 200 µg/disc (T. confusum [1]) was 85%. It also gave a mortality at 400 µg/disc (T. confusum [1]) of 100%, an LD50 expected (T. confusum [4]; [8]) of 139.3 ng/insect and a synerg. factor (T. confusum [4]; [9]) of 2.68. It also gave an LD50 measured (T. confusum [4]; topical, abdominal side) of 51.9 ng/insect, an LD50 expected (Musca domestica; [8]) of 24.5 ng/insect and a synerg. factor (Musca domestica; [9]) of 1.92. For the same compound, the LD50 measured (Musca domestica; topical, dorsal cuticulum, 24 hours) was 12.8 ng/insect, the Mortality % (A. matricariae [2]; 1 ppm, 1h) was 0% and the Mortality % (A. matricariae [2]; 1 ppm, 5h) was 75%. The Mortality % (A. matricariae [2]; 1 ppm, 24h) was 88%, the Mortality % (A. matricariae [2]; 5 ppm, 1h) was 100% and the toxicity on bees (bees) was “very low toxicity on bees”. The repellant effect (Repellant effect) was “outstandingly good”, the mortality at 0.05 µg/insect ([5]; 0.05 μg/insect) was 0% and the mortality at 0.1 µg/insect ([5]; 0.10 μg/insect) was 25%. The mortality at 0.2 µg/insect ([5]; 0.20 μg/insect) was 75%, the mortality at 0.4 µg/insect ([5]; 0.40 μg/insect) was 85% and the Mortality % (A. matricariae [6]; 1 ppm) was 0%. The Mortality % (A. matricariae [6]; 5 ppm) was 0%, the Mortality % (A. matricariae [6]; 10 ppm) was 0% and the Mortality % (A. matricariae [6]; 30 ppm) was 61.0%. The “damage / toxicity to useful entomophages and parasites” value [7] was “does not damage useful entomophages and parasites; also recorded: less toxic on parasites than the isomer-pair Ia”.

Compound `CC1(C)C(C=C(Cl)Cl)C1C(=O)OC(C#N)c1cccc(Oc2ccccc2)c1` (stereo not drawn) [Ia:Ib = 4:6] has a Mortality % (Aphidinus matricariae; 1 ppm, 1h) of 50%, a Mortality % (Aphidinus matricariae; 1 ppm, 5h) of 90% and a Mortality % (Aphidinus matricariae; 1 ppm, 24h) of 63%. The Mortality % (Aphidinus matricariae; 5 ppm, 1h) was 100%.
